The results in this text go back to EP4745135A1 (Gluetacs Therapeutics (Shanghai) Co., Ltd., priority 2023, dated 2025).

As usually defined, the inhibition is the relative decrease from the control value, in per cent.

Assay [1] concerns the target T1, IKZF2 (Homo sapiens, UniProt Q96SW2+Q9UKS7).
T1 construct: effects of the compounds of the present disclosure on the expression of target proteins in cells; endogenous in cells; host or cells: human PBMCs (Milecell Biotechnologies)
The experiment in a line: Western blot, degradation of substrate protein in hPBMCs. It is filed as cell-based. The settings on record: Western blot, 24 hours of compound treatment, compounds tested at 50 nM and 500 nM (concentration for the table not stated).

Assay [2] deals with T2, IKZF3 (Homo sapiens, UniProt Q96SW2+Q9UKT9).
T2 construct: effects of the compounds of the present disclosure on the expression of target proteins in cells; endogenous in cells; host or cells: human PBMCs (Milecell Biotechnologies)
The assay is described as above. It is filed as cell-based. The note with it: Western blot, 24 hours of compound treatment, compounds tested at 50 nM and 500 nM (concentration for the table not stated). (In general: A western blot detects proteins with antibodies after separation by electrophoresis.)

The target of assay [3] is T3, CK1α (Homo sapiens, UniProt P48729+Q96SW2).
T3 construct: effects of the compounds of the present disclosure on the expression of target proteins in cells; endogenous in cells; host or cells: human PBMCs (Milecell Biotechnologies)
The assay is described as above. It is filed as cell-based. The settings on record: Western blot, 24 hours of compound treatment, compounds tested at 50 nM and 500 nM (concentration for the table not stated).

Assay [4] has as its target T4, WEE1 (Homo sapiens, UniProt P30291+Q96SW2).
T4 construct: effects of the compounds of the present disclosure on the expression of target proteins in cells; endogenous in cells; host or cells: human PBMCs (Milecell Biotechnologies)
Described as above. Type of assay: cell-based. The note with it: Western blot, 24 hours of compound treatment, compounds tested at 50 nM and 500 nM (concentration for the table not stated).

In assay [5] the target is T5, IKZF1 (Homo sapiens, UniProt Q13422+Q96SW2).
T5 construct: effects of the compounds of the present disclosure on the expression of target proteins in cells; endogenous in cells; host or cells: human PBMCs (Milecell Biotechnologies)
Described as above. The settings on record: Western blot, 24 hours of compound treatment, compounds tested at 50 nM and 500 nM (concentration for the table not stated). Type of assay: cell-based.

Assay [6] concerns the target T6, human Cereblon WT GST-tagged protein (Homo sapiens, UniProt Q96SW2).
T6 construct: purchased CISBIO 64BDCRBNPEH
The experiment in a line: CRBN-binding affinity, HTRF (CEREBLON BINDING kit). The note with it: CRBN binding, HTRF, 3 hours at room temperature; read-out: HTRF IC50. For orientation: Time-resolved FRET reads energy transfer from a long-lived donor to a nearby acceptor.

Assay [7] relates to Human non-small cell lung cancer cell line: NCI-H1975. The experiment in a line: Tumor cell proliferation inhibition (CellTiter-Meiluncell luminescent cell viability assay). The note with it: NCI-H1975, 96 h, read-out: Inhibitory activity (IC50, nM) on tumor cell proliferation, H1975.
Description: (§1) The tumor cells used herein were cultured in a cell culture medium listed in table 2 at 37°C in an incubator with 5% CO2. Prior to experimentation, all cell lines used were correctly identified by STR profiling, and tested negative for mycoplasma contamination using a mycoplasma detection kit through routine screenings.
(§2) The IC50 values of the compounds of the present disclosure (including the compounds in Table 1 and Examples) were determined using the CellTiter-Meiluncell Luminescent Cell Viability Assay Kit from Dalian Meilun Biotech Co., Ltd. The detailed procedure is as follows: Tumor cells were seeded in 96-well cell culture plates at the densities specified in Table 3. On the following day, the test compounds of the present disclosure were subjected to serial dilution. The dilution can be performed according to one of the following two methods: • (1) The first dilution method: The test compounds of the present disclosure (including the compounds in Table 1 and Examples) were subjected to 5-fold serial dilutions starting from a highest concentration of 2000 µM, resulting in a total of 9 concentrations from high to low (2000, 400, 80, 16, 3.2, 0.64, 0.128, 0.0256, 0.00512 µM). Subsequently, 0.5 µL of the test compound dilution was transferred into the 96-well plate containing the cells, with each well containing 100 µL of cell culture medium. […] Into the 96-well plate, the diluted test compounds and corresponding detection reagents were added, resulting in final test compound concentrations of 500 nM and 10 nM, respectively. The experimental procedure is described below using the diluted 2 µM test compound as an example.
(§3) 0.5 µL of the aforementioned diluted compound of the present disclosure (including the compounds in Table 1 and Examples) was added to the seeded cells in 100 µL of medium, yielding a final test compound concentration of 10 nM. After the cells were treated with the compounds of the present disclosure for a specified period, the cell viability assay reagent was added to the culture medium according to the kit's instructions to determine cell viability. […] All controls were treated using the same procedure as the compounds of the present disclosure. The growth inhibition curves for the compounds of the present disclosure were plotted using Prism GraphPad software, and the IC50 values were calculated therefrom.
The subject of assay [8] is Human breast cancer cell (MCF-7). Described as above. The note with it: MCF7, 96 h; for IC50: read-out: Inhibitory activity (IC50, nM) on tumor cell proliferation, MCF7.
In assay [9] the test system is GSPT1. The assay is described as follows: Western blot, degradation of substrate protein in hPBMCs. It is filed as cell-based, Human. The settings on record: Western blot, 24 hours of compound treatment, compounds tested at 50 nM and 500 nM (concentration for the table not stated).
Assay [10] concerns Human mantle cell lymphoma cell line: JEKO-1. The experiment in a line: Tumor cell proliferation inhibition (CellTiter-Meiluncell luminescent cell viability assay). The note with it: JeKo-1, 96 h, read-out: Inhibitory activity (IC50, nM) on tumor cell proliferation, JEKO-1.
Description: as §1, §2, §3
Assay [11] has as its system Human multiple myeloma cell (MM.1S). Described as above. The note with it: Homo sapiens, MM1.S, 96 h, read-out: Inhibitory activity (IC50, nM) on tumor cell proliferation, MM.1S.
The test system of assay [12] is Human T lymphocytic leukemia cell line: Jurkat. The assay is described as above. The settings on record: 96 h; for IC50: read-out: Inhibitory activity (IC50, nM) on tumor cell proliferation, Jurkat.
The test system of assay [13] is Human gastric cancer cell line: MGC803. Described as above. The settings on record: MGC-803, read-out: Inhibitory activity (IC50, nM) on tumor cell proliferation, MGC803.
Description: as §2, §3
The subject of assay [14] is Human multiple myeloma peripheral blood B lymphocyte cell (RPMI-8226). The assay is described as above. The settings on record: RPMI-8226, 96 h; for IC50: read-out: Inhibitory activity (IC50, nM) on tumor cell proliferation, RPMI-8226.
The test system of assay [15] is Human diffuse large B-cell lymphoma cell line: TMD8. The description is as above. The note with it: TMD8, 96 h, read-out: Inhibitory activity (IC50, nM) on tumor cell proliferation, TMD8.
Description: as §1, §2
0.5 µL of the aforementioned diluted compound of the present disclosure (including the compounds in Table 1 and Examples) was added to the seeded cells in 100 µL of medium, yielding a final test compound concentration of 10 nM. […] The growth inhibition curves for the compounds of the present disclosure were plotted using Prism GraphPad software, and the IC50 values were calculated therefrom.
The subject of assay [16] is Human acute myeloid leukemia cell line: Kasumi-1. Described as above. The settings on record: Kasumi 1, 96 h.
In assay [17] the test system is Human malignant melanoma cell line: A375. The assay is described as above. The note with it: A-375, 96 h.
Description: as §1, §2, §3
Assay [18] deals with Human monocytic leukemia cell line: THP-1. The description is as above. The note with it: THP-1, 96 h.
Description: as §1, §2, §3
Assay [19] concerns Human T cell acute lymphoblastic leukemia cell (CCRF-CEM). The assay is described as above. The note with it: 96 h.
Description: as §1, §2, §3
Assay [20] has as its system Human colon cancer cell line: SW620. Described as above. The settings on record: SW-620, 96 h.
Description: as §1, §2, §3
Assay [21] deals with Human myeloid monocytic leukemia cell (MV-4-11). The assay is described as above. The note with it: MV4-11, 96 h.
Where [22] appears, read: read-out: Inhibition Rate at 10 nM (%).
[23] abbreviates: read-out: Inhibition Rate at 500 nM (%).

A value given as a limit tells only on which side of the number the result lay.

T6 sequence (Q96SW2 whole entry): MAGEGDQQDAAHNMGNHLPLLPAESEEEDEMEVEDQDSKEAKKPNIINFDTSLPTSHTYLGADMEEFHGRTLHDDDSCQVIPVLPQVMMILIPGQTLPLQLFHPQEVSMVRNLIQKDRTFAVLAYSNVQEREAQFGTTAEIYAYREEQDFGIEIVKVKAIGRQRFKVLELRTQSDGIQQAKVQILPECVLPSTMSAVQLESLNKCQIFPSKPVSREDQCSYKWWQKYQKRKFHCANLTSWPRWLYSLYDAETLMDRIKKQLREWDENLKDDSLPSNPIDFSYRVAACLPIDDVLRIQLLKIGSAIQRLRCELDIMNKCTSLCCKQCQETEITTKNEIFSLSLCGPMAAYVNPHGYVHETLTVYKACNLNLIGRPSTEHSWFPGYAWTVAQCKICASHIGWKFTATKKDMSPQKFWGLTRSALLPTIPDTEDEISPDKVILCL
T4 sequence (P30291 whole entry): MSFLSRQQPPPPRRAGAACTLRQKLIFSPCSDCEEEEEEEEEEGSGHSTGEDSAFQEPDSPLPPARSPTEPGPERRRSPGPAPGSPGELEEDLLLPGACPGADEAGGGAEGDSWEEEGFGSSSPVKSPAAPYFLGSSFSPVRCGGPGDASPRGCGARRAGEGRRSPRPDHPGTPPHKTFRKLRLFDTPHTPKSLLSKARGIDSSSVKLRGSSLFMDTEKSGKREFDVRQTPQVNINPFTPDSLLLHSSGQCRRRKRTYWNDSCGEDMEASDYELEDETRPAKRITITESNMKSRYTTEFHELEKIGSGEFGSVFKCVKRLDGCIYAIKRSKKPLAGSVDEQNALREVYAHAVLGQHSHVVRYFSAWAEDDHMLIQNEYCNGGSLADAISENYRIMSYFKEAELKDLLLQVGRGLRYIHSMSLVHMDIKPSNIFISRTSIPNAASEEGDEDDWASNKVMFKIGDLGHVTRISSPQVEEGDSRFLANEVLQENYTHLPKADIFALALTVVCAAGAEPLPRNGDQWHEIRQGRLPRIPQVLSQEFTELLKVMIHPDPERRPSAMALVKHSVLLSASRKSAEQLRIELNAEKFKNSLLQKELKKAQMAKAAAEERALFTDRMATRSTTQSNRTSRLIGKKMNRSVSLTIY
T4 sequence (Q96SW2 whole entry): as the sequence (Q96SW2 whole entry) above
T4 sequence (Q16531 whole entry partner): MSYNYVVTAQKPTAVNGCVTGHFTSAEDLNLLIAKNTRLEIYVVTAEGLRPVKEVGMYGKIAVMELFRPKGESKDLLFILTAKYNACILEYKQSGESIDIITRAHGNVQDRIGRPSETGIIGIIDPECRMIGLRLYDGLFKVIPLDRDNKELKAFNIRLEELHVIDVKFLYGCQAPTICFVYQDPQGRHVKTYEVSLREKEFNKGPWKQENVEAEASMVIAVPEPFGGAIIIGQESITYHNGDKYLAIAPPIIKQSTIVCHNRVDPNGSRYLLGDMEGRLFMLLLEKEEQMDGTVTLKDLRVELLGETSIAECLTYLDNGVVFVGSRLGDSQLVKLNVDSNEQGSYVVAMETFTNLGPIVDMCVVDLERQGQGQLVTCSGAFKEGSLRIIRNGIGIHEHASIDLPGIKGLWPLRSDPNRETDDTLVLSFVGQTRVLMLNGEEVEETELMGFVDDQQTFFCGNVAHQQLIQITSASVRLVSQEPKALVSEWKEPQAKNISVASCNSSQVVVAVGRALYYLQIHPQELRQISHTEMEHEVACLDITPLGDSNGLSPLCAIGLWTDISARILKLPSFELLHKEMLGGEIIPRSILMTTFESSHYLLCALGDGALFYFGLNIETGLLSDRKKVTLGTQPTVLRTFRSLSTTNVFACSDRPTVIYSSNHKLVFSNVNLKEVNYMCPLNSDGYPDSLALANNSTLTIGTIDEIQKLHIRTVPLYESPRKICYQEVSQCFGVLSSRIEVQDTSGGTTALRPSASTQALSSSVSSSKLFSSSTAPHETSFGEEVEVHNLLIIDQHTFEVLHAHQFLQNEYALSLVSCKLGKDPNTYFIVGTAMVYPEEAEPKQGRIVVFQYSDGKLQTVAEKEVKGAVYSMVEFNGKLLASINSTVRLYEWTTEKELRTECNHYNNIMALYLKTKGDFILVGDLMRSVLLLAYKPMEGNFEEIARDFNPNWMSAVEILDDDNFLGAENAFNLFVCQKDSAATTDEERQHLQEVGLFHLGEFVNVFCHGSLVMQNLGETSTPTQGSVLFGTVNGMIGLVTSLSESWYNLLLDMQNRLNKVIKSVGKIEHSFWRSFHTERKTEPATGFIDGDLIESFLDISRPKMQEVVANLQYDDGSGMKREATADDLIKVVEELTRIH
T2 sequence (Q9UKT9 whole entry): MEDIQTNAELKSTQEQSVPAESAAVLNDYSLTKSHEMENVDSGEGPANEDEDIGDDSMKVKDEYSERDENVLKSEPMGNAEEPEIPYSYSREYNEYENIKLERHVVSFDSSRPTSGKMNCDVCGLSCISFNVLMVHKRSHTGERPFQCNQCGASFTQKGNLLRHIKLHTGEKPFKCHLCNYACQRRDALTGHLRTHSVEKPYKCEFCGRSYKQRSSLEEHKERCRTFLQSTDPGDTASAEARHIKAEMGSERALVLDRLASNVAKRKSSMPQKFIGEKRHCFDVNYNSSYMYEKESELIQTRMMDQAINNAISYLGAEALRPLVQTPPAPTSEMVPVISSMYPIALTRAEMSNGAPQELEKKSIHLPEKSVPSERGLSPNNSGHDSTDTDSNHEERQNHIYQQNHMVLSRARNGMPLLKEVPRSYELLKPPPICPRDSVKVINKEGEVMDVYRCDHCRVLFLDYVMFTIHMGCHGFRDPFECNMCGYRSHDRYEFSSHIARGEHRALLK
T2 sequence (Q96SW2 whole entry): as the sequence (Q96SW2 whole entry) above
T2 sequence (Q16531 whole entry partner): as the sequence (Q16531 whole entry partner) above
T3 sequence (P48729 whole entry): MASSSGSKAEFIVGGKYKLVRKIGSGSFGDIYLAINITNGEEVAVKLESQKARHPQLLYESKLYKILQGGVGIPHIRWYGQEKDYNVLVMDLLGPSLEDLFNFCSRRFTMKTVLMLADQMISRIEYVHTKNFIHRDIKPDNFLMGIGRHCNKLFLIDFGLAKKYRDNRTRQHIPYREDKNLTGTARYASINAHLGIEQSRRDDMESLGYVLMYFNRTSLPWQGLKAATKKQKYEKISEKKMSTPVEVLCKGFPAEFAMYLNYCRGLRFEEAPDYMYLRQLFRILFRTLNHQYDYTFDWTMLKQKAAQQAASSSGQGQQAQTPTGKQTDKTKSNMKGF
T3 sequence (Q96SW2 whole entry): as the sequence (Q96SW2 whole entry) above
T3 sequence (Q16531 whole entry partner): as the sequence (Q16531 whole entry partner) above
T5 sequence (Q13422 whole entry): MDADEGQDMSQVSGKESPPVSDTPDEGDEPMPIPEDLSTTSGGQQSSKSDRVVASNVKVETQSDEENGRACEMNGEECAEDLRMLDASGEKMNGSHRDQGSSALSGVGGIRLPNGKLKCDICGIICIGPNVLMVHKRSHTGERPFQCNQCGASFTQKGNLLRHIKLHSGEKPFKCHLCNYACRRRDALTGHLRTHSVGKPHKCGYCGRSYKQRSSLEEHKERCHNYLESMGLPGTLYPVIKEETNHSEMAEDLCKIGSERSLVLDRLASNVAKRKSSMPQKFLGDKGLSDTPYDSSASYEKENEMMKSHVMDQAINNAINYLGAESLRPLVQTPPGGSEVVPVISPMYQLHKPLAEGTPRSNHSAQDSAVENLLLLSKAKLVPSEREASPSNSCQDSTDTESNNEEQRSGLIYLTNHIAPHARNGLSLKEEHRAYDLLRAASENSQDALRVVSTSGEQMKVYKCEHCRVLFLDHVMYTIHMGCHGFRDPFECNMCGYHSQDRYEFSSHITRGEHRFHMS
T5 sequence (Q96SW2 whole entry): as the sequence (Q96SW2 whole entry) above
T5 sequence (Q16531 whole entry partner): as the sequence (Q16531 whole entry partner) above
T1 sequence (Q9UKS7 whole entry): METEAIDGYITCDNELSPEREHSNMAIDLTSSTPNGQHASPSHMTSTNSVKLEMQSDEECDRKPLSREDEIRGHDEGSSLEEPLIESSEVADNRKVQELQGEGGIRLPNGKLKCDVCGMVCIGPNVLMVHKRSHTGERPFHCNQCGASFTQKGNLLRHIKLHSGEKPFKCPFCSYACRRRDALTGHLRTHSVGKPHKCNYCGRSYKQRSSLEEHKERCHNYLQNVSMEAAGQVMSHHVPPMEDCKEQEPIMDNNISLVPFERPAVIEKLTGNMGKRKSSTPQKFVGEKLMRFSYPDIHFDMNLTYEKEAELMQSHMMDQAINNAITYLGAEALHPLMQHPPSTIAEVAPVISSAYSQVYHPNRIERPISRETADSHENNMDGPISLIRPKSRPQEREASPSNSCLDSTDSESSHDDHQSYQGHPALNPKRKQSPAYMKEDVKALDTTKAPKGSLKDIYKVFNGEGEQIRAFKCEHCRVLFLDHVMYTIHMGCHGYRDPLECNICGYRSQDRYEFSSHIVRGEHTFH
T1 sequence (Q96SW2 whole entry): as the sequence (Q96SW2 whole entry) above
T1 sequence (Q16531 whole entry partner): as the sequence (Q16531 whole entry partner) above

For the molecule `O=C1CCC(N2Cc3cc(CN4CC=C(c5cccc(Cl)c5Cl)CC4)ccc3C2=S)C(=O)N1` (stereo not drawn) [GT-05149, 3-(5-((4-(2,3-dichlorophenyl)-3,6-dihydropyridin-1(2H)-yl)methyl)-1-thioxoisoindolin-2-yl)piperidine-2,6-dione], the “IKZF2 substrate protein remaining %” value in assay [1] is listed as “A (0% ≤ substrate protein remaining % ≤ 80%)”. The “IKZF3 substrate protein remaining %” value in [2] was “A (0% ≤ substrate protein remaining % ≤ 80%)”. In addition, the “CK1α substrate protein remaining %” value in [3] was “B (80%< substrate protein remaining %≤ 100%)”. Further, the “Wee1 substrate protein remaining %” value in assay [4] was “A (0% ≤ substrate protein remaining % ≤ 80%)”. In assay [5], the “IKZF 1 substrate protein remaining %” value was “A (0% ≤ substrate protein remaining % ≤ 80%)”. Besides, the IC50 was 100 to 500 nM in [6]; 10 to 50 nM in assay [7]; 10 to 50 nM in [8]; 5 to 10 nM in assay [10]; less than 5 nM in [11]; 5 to 10 nM in assay [12]. Moreover, the IC50 in assay [13] lay in the range of 10 to 50 nM. The “GSPT1 substrate protein remaining %” value in [9] is recorded as “A (0% ≤ substrate protein remaining % ≤ 80%)”.

`O=C1CCC(N2Cc3cc(CN4CCC(c5cccc(Cl)c5Cl)CC4)ccc3C2=S)C(=O)N1` (stereo not drawn) [GT-05150, 3-(5-((4-(2,3-dichlorophenyl)piperidin-1-yl)methyl)-1-thioxoisoindolin-2-yl)piperidine-2,6-dione]: the “IKZF2 substrate protein remaining %” value in assay [1] is reported as “A (0% ≤ substrate protein remaining % ≤ 80%)”. For the same molecule, the “IKZF3 substrate protein remaining %” value in [2] is given as “B (80%< substrate protein remaining %≤ 100%)”. In addition, the “CK1α substrate protein remaining %” value in assay [3] was “B (80%< substrate protein remaining %≤ 100%)”. Further, in assay [4], the “Wee1 substrate protein remaining %” value is “A (0% ≤ substrate protein remaining % ≤ 80%)”. Moreover, in assay [5], the “IKZF 1 substrate protein remaining %” value is given as “A (0% ≤ substrate protein remaining % ≤ 80%)”. The IC50 in assay [6] is 500 to 1000 nM; in assay [7], 50 to 100 nM; in [8], 100 to 500 nM; in assay [10], 50 to 100 nM; in [11] it was 5 to 10 nM; in assay [12], 10 to 50 nM. Besides, the IC50 in assay [13] lay in the range of 100 to 500 nM. Moreover, the “GSPT1 substrate protein remaining %” value in [9] is “A (0% ≤ substrate protein remaining % ≤ 80%)”.

Regarding `O=C1CCC(N2Cc3cc(CN4CCC(c5c[nH]c6cc(F)ccc56)CC4)ccc3C2=S)C(=O)N1` (stereo not drawn) [GT-05243, 3-(5-((4-(6-fluoro-1H-indol-3-yl)piperidin-1-yl)methyl)-1-thioxoisoindolin-2-yl)piperidine-2,6-dione], the “IKZF2 substrate protein remaining %” value in [1] is listed as “A (0% ≤ substrate protein remaining % ≤ 80%)”. In addition, in [2], the “IKZF3 substrate protein remaining %” value was “A (0% ≤ substrate protein remaining % ≤ 80%)”. For the same molecule, the “CK1α substrate protein remaining %” value in [3] is “B (80%< substrate protein remaining %≤ 100%)”. For the same molecule, the “Wee1 substrate protein remaining %” value in assay [4] is listed as “A (0% ≤ substrate protein remaining % ≤ 80%)”. Further, the “IKZF 1 substrate protein remaining %” value in assay [5] is “B (80%< substrate protein remaining %≤ 100%)”. The IC50 in [6] is less than 100 nM; in [14] it was 10 to 50 nM; in assay [11], less than 5 nM; in [15], 100 to 500 nM. For the same molecule, the “GSPT1 substrate protein remaining %” value in assay [9] is recorded as “A (0% ≤ substrate protein remaining % ≤ 80%)”.

With `Cn1cc(C2=CCN(Cc3ccc4c(c3)CN(C3CCC(=O)NC3=O)C4=S)CC2)c2ccc(F)cc21` (stereo not drawn) [GT-05247, 3-(5-((4-(6-fluoro-1-methyl-1H-indol-3-yl)-3,6-dihydropyridin-1(2H)-yl)methyl)-1-thioxoisoindolin-2-yl)piperidine-2,6-dione], the “IKZF2 substrate protein remaining %” value in assay [1] is listed as “A (0% ≤ substrate protein remaining % ≤ 80%)”. Further, the “IKZF3 substrate protein remaining %” value in assay [2] is listed as “A (0% ≤ substrate protein remaining % ≤ 80%)”. Further, in assay [3], the “CK1α substrate protein remaining %” value was “A (0% ≤ substrate protein remaining % ≤ 80%)”. Also, the “Wee1 substrate protein remaining %” value in [4] was “A (0% ≤ substrate protein remaining % ≤ 80%)”. For the same molecule, the “IKZF 1 substrate protein remaining %” value in assay [5] was “B (80%< substrate protein remaining %≤ 100%)”. Further, the IC50 was 100 to 500 nM in assay [6], 10 to 50 nM in assay [14], less than 5 nM in assay [11] and 100 to 500 nM in assay [15]. Further, the “GSPT1 substrate protein remaining %” value in assay [9] is “A (0% ≤ substrate protein remaining % ≤ 80%)”.

`Nc1cccc2c1C(=O)N(C1CCC(=O)NC1=O)C2=O` (stereo not drawn) [pomalidomide, reference compound]: the inhibition at 0.01 µM was 10 to 20% in [14] (setting [22]); -10 to -5% in assay [16] (setting [22]); 10 to 20% in assay [17] (setting [22]); 10 to 20% in assay [18] (setting [22]); 0 to 5% in assay [19] (setting [22]); 20 to 30% in assay [20] (setting [22]). Moreover, the inhibition at 0.01 µM in assay [8] (setting [22]) was in the range of 5 to 10%; in [12] (setting [22]), 10 to 20%; in assay [21] (setting [22]) it was 18 to 25%. Further, the inhibition at 0.5 µM in assay [14] (setting [23]) was 30 to 40%; in [16] (setting [23]), -5 to 0%; in assay [17] (setting [23]) it was 5 to 10%; in assay [18] (setting [23]) it was 10 to 20%; in assay [19] (setting [23]), 0 to 5%; in assay [20] (setting [23]), 20 to 30%. The inhibition at 0.5 µM was 0 to 5% in [8] (setting [23]), 10 to 20% in [12] (setting [23]) and 10 to 18% in [21] (setting [23]). In addition, the IC50 is 1000 to 5000 nM in assay [14]; more than 10000 nM in [7]; more than 10000 nM in assay [8]; 5000 to 10000 nM in assay [10]; 500 to 1000 nM in [11]; more than 10000 nM in [12]. The IC50 in assay [15] and in assay [13] was more than 10000 nM in each case.
